Assay results: patent US9944699B2, “In vitro method for identifying compounds of the Nav 1.9 sodium channel intended for the treatment of an inflammatory skin disease” (GALDERMA RESEARCH & DEVELOPMENT, priority 2013, dated 2018)
pEC50: −log10 of the molar value. “Also recorded” adds a separate entry of the source.

Columns and labels:
[1] = molecular target: Nav 1.5 (Homo sapiens, UniProt Q14524); conditions: cited from earlier work
[2] = molecular target: Nav 1.9 (Homo sapiens, UniProt Q9UI33); conditions: cited from earlier work
[3] = molecular target: Nav 1.8 (Homo sapiens, UniProt Q9Y5Y9); conditions: cited from earlier work
[4] = system: primary cultures of neurones from spinal ganglia of KO mice for Nav 1.9; experiment: Release of CGRP by primary neurone cultures after treatment with capsaicin (ELISA), Nav 1.9 KO mice; assay type: cell-based, mouse; conditions: capsaicin 300 nM, 15 min; neurone cultures from Nav 1.9 KO mice; versus without treatment

Sequence of Nav 1.9 (Q9UI33 whole entry, looked up): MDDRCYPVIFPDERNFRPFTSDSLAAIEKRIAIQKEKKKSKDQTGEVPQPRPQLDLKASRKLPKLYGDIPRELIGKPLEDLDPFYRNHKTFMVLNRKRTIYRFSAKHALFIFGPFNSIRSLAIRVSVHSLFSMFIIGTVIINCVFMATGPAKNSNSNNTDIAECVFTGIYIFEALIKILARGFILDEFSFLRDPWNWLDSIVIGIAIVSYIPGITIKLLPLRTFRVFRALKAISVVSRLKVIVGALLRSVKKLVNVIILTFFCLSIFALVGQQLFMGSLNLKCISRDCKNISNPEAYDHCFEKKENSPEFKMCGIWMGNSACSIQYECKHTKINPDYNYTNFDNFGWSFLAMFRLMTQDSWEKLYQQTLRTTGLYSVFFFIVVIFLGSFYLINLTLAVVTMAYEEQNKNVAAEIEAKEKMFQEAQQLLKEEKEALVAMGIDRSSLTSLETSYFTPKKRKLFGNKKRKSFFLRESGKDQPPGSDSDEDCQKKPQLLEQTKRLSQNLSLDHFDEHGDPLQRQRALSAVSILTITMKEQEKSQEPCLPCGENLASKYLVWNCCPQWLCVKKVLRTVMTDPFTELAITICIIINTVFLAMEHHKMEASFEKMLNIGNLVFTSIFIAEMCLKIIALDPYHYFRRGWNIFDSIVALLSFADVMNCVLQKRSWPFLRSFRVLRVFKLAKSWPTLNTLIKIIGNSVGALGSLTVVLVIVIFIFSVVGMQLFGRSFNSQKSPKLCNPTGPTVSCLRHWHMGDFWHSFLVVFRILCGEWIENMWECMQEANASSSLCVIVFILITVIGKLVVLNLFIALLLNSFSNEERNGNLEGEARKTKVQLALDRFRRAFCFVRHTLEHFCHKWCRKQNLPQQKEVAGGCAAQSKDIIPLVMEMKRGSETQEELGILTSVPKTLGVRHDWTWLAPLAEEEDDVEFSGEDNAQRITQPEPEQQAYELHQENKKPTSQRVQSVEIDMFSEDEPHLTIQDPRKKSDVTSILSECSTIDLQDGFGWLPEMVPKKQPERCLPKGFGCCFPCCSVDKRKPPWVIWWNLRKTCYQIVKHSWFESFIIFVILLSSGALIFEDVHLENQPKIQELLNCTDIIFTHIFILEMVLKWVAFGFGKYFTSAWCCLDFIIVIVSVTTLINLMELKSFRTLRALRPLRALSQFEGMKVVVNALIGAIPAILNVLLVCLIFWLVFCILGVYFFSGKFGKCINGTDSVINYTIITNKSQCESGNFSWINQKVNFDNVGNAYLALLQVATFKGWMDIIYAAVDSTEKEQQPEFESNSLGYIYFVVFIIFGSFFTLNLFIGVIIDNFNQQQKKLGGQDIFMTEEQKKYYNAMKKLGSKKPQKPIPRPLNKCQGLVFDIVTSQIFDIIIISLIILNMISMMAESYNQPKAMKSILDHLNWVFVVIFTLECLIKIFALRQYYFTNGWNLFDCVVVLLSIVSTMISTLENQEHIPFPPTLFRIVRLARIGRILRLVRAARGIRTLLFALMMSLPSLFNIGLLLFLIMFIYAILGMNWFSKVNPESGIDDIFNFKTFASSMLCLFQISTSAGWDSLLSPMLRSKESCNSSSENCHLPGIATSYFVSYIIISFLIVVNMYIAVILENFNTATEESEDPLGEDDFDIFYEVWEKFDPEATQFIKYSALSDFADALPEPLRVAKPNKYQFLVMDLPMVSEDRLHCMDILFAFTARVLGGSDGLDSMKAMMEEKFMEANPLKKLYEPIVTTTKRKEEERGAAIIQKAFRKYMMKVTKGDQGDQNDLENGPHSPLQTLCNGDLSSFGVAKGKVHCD
Sequence of Nav 1.8 (Q9Y5Y9 whole entry, looked up): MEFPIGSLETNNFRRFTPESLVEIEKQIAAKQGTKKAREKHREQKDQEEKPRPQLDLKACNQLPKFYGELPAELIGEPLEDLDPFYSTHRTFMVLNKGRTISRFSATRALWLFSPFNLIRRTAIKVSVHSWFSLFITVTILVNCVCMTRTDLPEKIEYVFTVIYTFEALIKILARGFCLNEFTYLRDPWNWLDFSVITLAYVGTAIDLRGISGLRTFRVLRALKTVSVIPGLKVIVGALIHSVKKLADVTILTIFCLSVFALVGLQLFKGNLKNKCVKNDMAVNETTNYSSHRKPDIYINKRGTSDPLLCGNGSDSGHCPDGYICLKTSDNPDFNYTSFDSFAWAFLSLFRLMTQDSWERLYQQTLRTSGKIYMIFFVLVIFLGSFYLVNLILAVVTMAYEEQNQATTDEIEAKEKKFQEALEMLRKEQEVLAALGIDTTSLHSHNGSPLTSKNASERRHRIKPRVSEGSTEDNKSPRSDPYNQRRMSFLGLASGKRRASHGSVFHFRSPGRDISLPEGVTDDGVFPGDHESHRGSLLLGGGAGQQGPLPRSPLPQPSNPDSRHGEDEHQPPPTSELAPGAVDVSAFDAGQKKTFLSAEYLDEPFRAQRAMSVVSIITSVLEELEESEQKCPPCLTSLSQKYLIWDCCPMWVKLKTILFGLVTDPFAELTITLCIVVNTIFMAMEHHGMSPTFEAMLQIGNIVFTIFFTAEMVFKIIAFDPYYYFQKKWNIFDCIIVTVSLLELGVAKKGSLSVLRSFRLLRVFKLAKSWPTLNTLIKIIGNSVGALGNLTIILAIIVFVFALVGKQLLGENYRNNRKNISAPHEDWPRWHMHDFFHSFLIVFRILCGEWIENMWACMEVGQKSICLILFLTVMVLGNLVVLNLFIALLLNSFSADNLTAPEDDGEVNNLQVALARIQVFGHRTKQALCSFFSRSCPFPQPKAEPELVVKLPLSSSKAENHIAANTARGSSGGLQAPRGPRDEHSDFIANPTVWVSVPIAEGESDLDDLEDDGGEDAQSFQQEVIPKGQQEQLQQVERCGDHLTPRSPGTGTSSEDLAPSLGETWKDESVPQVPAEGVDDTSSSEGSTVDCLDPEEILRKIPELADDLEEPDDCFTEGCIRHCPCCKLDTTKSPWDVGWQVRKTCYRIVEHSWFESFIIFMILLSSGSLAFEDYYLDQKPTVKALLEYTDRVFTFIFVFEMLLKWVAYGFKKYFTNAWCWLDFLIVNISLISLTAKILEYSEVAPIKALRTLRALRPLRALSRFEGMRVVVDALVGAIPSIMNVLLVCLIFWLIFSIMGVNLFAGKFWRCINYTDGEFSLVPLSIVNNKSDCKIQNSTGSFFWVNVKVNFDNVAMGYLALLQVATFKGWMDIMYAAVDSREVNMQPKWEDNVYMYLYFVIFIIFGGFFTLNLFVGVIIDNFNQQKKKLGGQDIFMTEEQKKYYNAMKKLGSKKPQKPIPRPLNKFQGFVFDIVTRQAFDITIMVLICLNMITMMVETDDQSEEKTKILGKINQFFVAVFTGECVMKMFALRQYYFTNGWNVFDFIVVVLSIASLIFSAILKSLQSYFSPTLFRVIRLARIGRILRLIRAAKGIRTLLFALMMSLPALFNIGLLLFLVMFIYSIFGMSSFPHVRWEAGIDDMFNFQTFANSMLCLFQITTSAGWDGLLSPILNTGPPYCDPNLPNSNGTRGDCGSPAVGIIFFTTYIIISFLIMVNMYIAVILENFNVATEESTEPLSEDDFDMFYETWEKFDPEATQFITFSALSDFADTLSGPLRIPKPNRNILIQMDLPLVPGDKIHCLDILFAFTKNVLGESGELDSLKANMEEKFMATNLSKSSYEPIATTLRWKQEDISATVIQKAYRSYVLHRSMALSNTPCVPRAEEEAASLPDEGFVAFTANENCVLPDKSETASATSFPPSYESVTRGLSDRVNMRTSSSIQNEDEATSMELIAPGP

SMILES	sensitivity to tetrodotoxin (TTX) [1]	sensitivity to tetrodotoxin (TTX) [2]	pEC50 ([2]; read-out: EC50 of the TTX for Nav 1.9)	sensitivity to tetrodotoxin (TTX) [3]	variation in the amount of CGRP released in the supernatant [4]
NC1=N[C@H](O)[C@H]2[C@H]3O[C@]4(O)O[C@@H]([C@@H](O)[C@@]2(N1)[C@@H]4O)[C@]3(O)CO [TTX, tetrodotoxin]	resistant	resistant	~3.70	resistant	–
COc1cc(CNC(=O)CCCC/C=C/C(C)C)ccc1O [capsaicin]	–	–	–	–	no variation; also recorded: no increase
